For orientation: IC50 means the concentration that inhibits the measured activity by half.

Results on 34 molecules are retold here after patent US9303016B2, “Derivatives of aza adamantane and uses thereof” (CONNEXIOS LIFE SCIENCES PVT. LTD., priority 2011, dated 2016).

The target in this assay is T1, human full length HSD11β1 (Homo sapiens, UniProt P28845).
T1 construct: transient expression of human full length HSD11β1 expression vector; host or cells: CHO cells, transient transfection
T1 sequence (P28845 whole entry): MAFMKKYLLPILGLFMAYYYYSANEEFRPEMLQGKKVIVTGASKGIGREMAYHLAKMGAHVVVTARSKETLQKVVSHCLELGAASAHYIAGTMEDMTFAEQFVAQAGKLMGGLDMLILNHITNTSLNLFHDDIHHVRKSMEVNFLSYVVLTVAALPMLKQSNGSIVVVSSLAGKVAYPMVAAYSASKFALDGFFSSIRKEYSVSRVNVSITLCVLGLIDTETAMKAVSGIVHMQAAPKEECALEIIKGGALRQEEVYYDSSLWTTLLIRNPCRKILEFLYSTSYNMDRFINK
The assay is described as follows: In Vitro HSD11β1 Inhibition Assay. To be noted: CHO cells transiently expressing human HSD11β1; 200 nM cortisone+500 uM NADPH overnight; cortisone to cortisol by LC/MS-MS; read-out: 11βHSD1 (IC50). In kind it is cell-based. The procedure, abridged: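 Whole-cell assay in CHO cells transiently transfected with full-length human HSD11β1, re-seeded 24 h after transfection. Cells incubated overnight with 200 nM cortisone plus 500 uM NADPH, with or without inhibitor. Cortisone-to-cortisol conversion measured by LC/MS-MS; IC50 (nM) from an 8-point log concentration-inhibition curve.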
For `CC(CC(=O)N1C2CC3CC1CC(O)(C3)C2)c1c[nH]c2cccc(F)c12` (single isomer, unassigned) [Example 28, 3-(4-fluoro-1H-indol-3-yl)-1-(5-hydroxy-2-azatricyclo[3.3.1.1^3,7]dec-2-yl)butan-1-one], the IC50 fell in the range of 200 to 250 nM. For `CC(CC(=O)N1C2CC3CC1CC(C(C)C(=O)O)(C3)C2)c1c[nH]c2cccc(Cl)c12` (stereo not shown) [Compound 186, 2-{2-[3-(4-chloro-1H-indol-3-yl)butanoyl]-2-azatricyclo[3.3.1.1^3,7]dec-5-yl}propanoic acid], the IC50 is greater than 250 nM. The value for `O=C(O)CC12CC3CC(C1)N(C(=O)CC(c1cccs1)c1c[nH]c4cccc(F)c14)C(C3)C2` (stereo not shown) [Compound 159, {2-[3-(4-fluoro-1H-indol-3-yl)-3-(thiophen-2-yl)propanoyl]-2-azatricyclo[3.3.1.1^7]dec-5-yl}acetic acid] was 100 to 150 nM; that for `CC(CC(=O)N1C2CC3CC1CC(C#N)(C3)C2)c1c[nH]c2ccccc12` (stereo not shown) [Example 65] was 200 to 250 nM; that for `CC(CC(=O)N1C2CC3CC1CC(C(=O)O)(C3)C2)c1c[nH]c2cccc(-c3ccco3)c12` (stereo not shown) [Compound 222, 2-(3-(4-(furan-2-yl)-1H-indol-3-yl)butanoyl)-2-azaadamantane-5-carboxylic acid] was greater than 250 nM. Take `CC(CC(=O)N1C2CC3CC1CC(C(C)C(=O)O)(C3)C2)c1c[nH]c2cccc(C3CC3)c12` (stereo not shown) [Compound 167, 2-{2-[3-(4-cyclopropyl-1H-indol-3-yl)butanoyl]-2-azatricyclo[3.3.1.1^3,7]dec-5-yl}propanoic acid]: the IC50 is 200 to 250 nM.

For `O=C(CC(c1ccccc1)c1nc2ccccc2s1)N1C2CC3CC1CC(O)(C3)C2` (stereo not shown) [Compound 107, 3-(1,3-benzothiazol-2-yl)-1-(5-hydroxy-2-azatricyclo[3.3.1.1^3,7]dec-2-yl)-3-phenylpropan-1-one], the IC50 is greater than 250 nM.

In the case of `COc1cc2c(C(C)CC(=O)N3C4CC5CC3CC(O)(C5)C4)c[nH]c2cc1Cl` (stereo not shown) [Compound 117, 3-(6-chloro-5-methoxy-1H-indol-3-yl)-1-(5-hydroxy-2-azatricyclo[3.3.1.1^3,7]dec-2-yl)butan-1-one], the IC50 was greater than 250 nM. The value for `COC12CC3CC(C1)N(C(=O)CC(C)c1c[nH]c4cccc(F)c14)C(C3)C2` (single isomer, unassigned) [Example 31, 3-(4-fluoro-1H-indol-3-yl)-1-(5-methoxy-2-azatricyclo[3.3.1.1^3,7]dec-2-yl)butan-1-one] was less than 100 nM; that for `CC(CC(=O)N1C2CC3CC1CC(CC(=O)O)(C3)C2)c1c[nH]c2cccc(-c3cccs3)c12` (stereo not shown) [Compound 154, (2-{3-[4-(thiophen-2-yl)-1H-indol-3-yl]butanoyl}-2-azatricyclo[3.3.1.1^3,7]dec-5-yl)acetic acid] was greater than 250 nM; that for `Cc1cccc2[nH]cc(C(C)CC(=O)N3C4CC5CC3CC(F)(C5)C4)c12` (stereo not shown) [Compound 104, 1-(5-fluoro-2-azatricyclo[3.3.1.1^3,7]dec-2-yl)-3-(4-methyl-1H-indol-3-yl)butan-1-one] was less than 100 nM. In the case of `O=C(CC(c1ccc(F)cc1)c1c[nH]c2ccccc12)N1C2CC3CC1CC(O)(C3)C2` (stereo not shown) [Compound 73, 3-(4-fluorophenyl)-1-(5-hydroxy-2-azatricyclo[3.3.1.1^3,7]dec-2-yl)-3-(1H-indol-3-yl)propan-1-one] it was less than 100 nM.

As to `CC(CC(=O)N1C2CC3CC1CC(O)(C3)C2)c1nc2ccccc2s1` (stereo not shown) [Compound 84, 3-(1,3-benzothiazol-2-yl)-1-(5-hydroxy-2-azatricyclo[3.3.1.1^3,7]dec-2-yl)butan-1-one], the IC50 lay within 200 to 250 nM.

As for `CC(CC(=O)N1C2CC3CC1CC(O)(C3)C2)c1c[nH]c2cccc(-c3cccs3)c12` (single isomer, unassigned) [Compound 189, 1-(5-hydroxy-2-azatricyclo[3.3.1.1^3,7]dec-2-yl)-3-[4-(thiophen-2-yl)-1H-indol-3-yl]butan-1-one], the IC50 is greater than 250 nM. The value for `CC(CC(=O)N1C2CC3CC1CC(CC(=O)O)(C3)C2)c1c[nH]c2cccc(C3CC3)c12` (single isomer, unassigned) [Compound 155, {2-[3-(4-cyclopropyl-1H-indol-3-yl)butanoyl]-2-azatricyclo[3.3.1.1^3,7]dec-5-yl}acetic acid] was 100 to 150 nM. In the case of `O=C(CC(c1c[nH]c2cccc(F)c12)C1CC1)N1C2CC3CC1CC(O)(C3)C2` (stereo not shown) [Compound 95, 3-cyclopropyl-3-(4-fluoro-1H-indol-3-yl)-1-(5-hydroxy-2-azatricyclo[3.3.1.1^3,7]dec-2-yl)propan-1-one] it was 100 to 150 nM. In the case of `CC(CC(=O)N1C2CC3CC1CC(C(N)=O)(C3)C2)c1c[nH]c2cccc(C3CC3)c12` (stereo not shown) [Example 56, 2-[3-(4-cyclopropyl-1H-indol-3-yl)butanoyl]-2-azatricyclo[3.3.1.1^3,7]decane-5-carboxamide] it was less than 100 nM. For `CC(CC(=O)N1C2CC3CC1CC(O)(C3)C2)c1c[nH]c2cccc(-c3cccs3)c12` (stereo not shown) [Compound 153, 1-(5-hydroxy-2-azatricyclo[3.3.1.1^3,7]dec-2-yl)-3-[4-(thiophen-2-yl)-1H-indol-3-yl]butan-1-one], the IC50 is less than 100 nM. The value for `Cc1ccc2[nH]cc(C(C)CC(=O)N3C4CC5CC3CC(O)(C5)C4)c2c1C1CC1` (stereo not shown) [Compound 160, 3-(4-cyclopropyl-5-methyl-1H-indol-3-yl)-1-(5-hydroxy-2-azatricyclo[3.3.1.1^3,7]dec-2-yl)butan-1-one] was 100 to 150 nM; that for `CC(C)C(CC(=O)N1C2CC3CC(C2)C(O)C1C3)c1c[nH]c2ccccc12` (stereo not shown) [Example 19, 1-(4-hydroxy-2-azatricyclo[3.3.1.1^3,7]dec-2-yl)-3-(1H-indol-3-yl)-4-methylpentan-1-one] was 200 to 250 nM; that for `Cn1cc(C(C)(C)CC(=O)N2C3CC4CC2CC(O)(C4)C3)c2ccccc21` [Example 10, 1-(5-hydroxy-2-azatricyclo[3.3.1.1^3,7]dec-2-yl)-3-methyl-3-(1-methyl-1H-indol-3-yl)butan-1-one] was greater than 250 nM. For `O=C(CCc1nc2ccccc2s1)N1C2CC3CC1CC(OC(F)F)(C3)C2` [Example 13, 3-(1,3-benzothiazol-2-yl)-1-[5-(difluoromethoxy)-2-azatricyclo[3.3.1.1^3,7]dec-2-yl]propan-1-one], the IC50 is greater than 250 nM. `CC(CC(=O)N1C2CC3CC1CC(C#N)(C3)C2)c1c[nH]c2ncc(Cl)cc12` (stereo not shown) [Compound 137, 2-[3-(6-chloro-1H-pyrrolo[2,3-b]pyridin-3-yl)butanoyl]-2-azatricyclo[3.3.1.1^3,7′]decane-5-carbonitrile]: the IC50 was greater than 250 nM.

Consider `CC(CC(=O)N1C2CC3CC1CC(O)(C3)C2)c1c[nH]c2cccc(F)c12` (single isomer, unassigned) [Example 27, 3-(4-fluoro-1H-indol-3-yl)-1-(5-hydroxy-2-azatricyclo[3.3.1.1^3,7]dec-2-yl)butan-1-one], for which the IC50 is greater than 250 nM. The value for `CC(CC(=O)N1C2CC3CC1CC(O)(C3)C2)c1c[nH]c2cccc(N3CCCCC3)c12` (stereo not shown) [Compound 180, 1-(5-hydroxy-2-azatricyclo[3.3.1.1^3,7]dec-2-yl)-3-[4-(piperidin-1-yl)-1H-indol-3-yl]butan-1-one] was greater than 250 nM; that for `Cc1cccc2c(C(C)CC(=O)N3C4CC5CC3CC(O)(C5)C4)c[nH]c12` (stereo not shown) [Compound 78, 1-(5-hydroxy-2-azatricyclo[3.3.1.1^3,7]dec-2-yl)-3-(7-methyl-1H-indol-3-yl)butan-1-one] was greater than 250 nM; that for `CC(CC(=O)N1C2CC3CC1CC(C#N)(C3)C2)c1nc2c(Cl)cccc2s1` (single isomer, unassigned) [Compound 125, 2-[3-(4-chloro-1,3-benzothiazol-2-yl)butanoyl]-2-azatricyclo[3.3.1.1^3,7]decane-5-carbonitrile] was greater than 250 nM. In the case of `CC(CC(=O)N1C2CC3CC1CC(O)(C3)C2)c1c[nH]c2nccc(C3CC3)c12` (stereo not shown) [Compound 132, 3-(4-cyclopropyl-1H-pyrrolo[2,3-b]pyridin-3-yl)-1-(5-hydroxy-2-azatricyclo[3.3.1.1^3,7]dec-2-yl)butan-1-one] it was less than 100 nM; in that of `O=C(CC(c1ccccc1)c1c[nH]c2cccc(F)c12)N1C2CC3CC1CC(O)(C3)C2` (stereo not shown) [Compound 83, 3-(4-fluoro-1H-indol-3-yl)-1-(5-hydroxy-2-azatricyclo[3.3.1.1^3,7]dec-2-yl)-3-phenylpropan-1-one], less than 100 nM. In the case of `CCCc1cccc2[nH]cc(CCC(=O)N3C4CC5CC3CC(O)(C5)C4)c12` [Compound 128, 1-(5-hydroxy-2-azatricyclo[3.3.1.1^3,7]dec-2-yl)-3-(4-propyl-1H-indol-3-yl)propan-1-one] it was greater than 250 nM; in that of `CC(CC(=O)N1C2CC3CC1CC(O)(C3)C2)c1c[nH]c2ccc(-c3ccco3)c(Cl)c12` (stereo not shown) [Compound 208, 3-[4-chloro-5-(furan-2-yl)-1H-indol-3-yl]-1-(5-hydroxy-2-azatricyclo[3.3.1.1^3,7]dec-2-yl)butan-1-one], 100 to 150 nM; in that of `Cc1c(F)ccc2[nH]cc(C(C)CC(=O)N3C4CC5CC3CC(O)(C5)C4)c12` (stereo not shown) [Compound 139, 3-(5-fluoro-4-methyl-1H-indol-3-yl)-1-(5-hydroxy-2-azatricyclo[3.3.1.1^3,7]dec-2-yl)butan-1-one], less than 100 nM. Regarding `CC(CC(=O)N1C2CC3CC1CC(O)(C3)C2)c1c[nH]c2cccc(-c3ccsc3)c12` (stereo not shown) [Compound 187, 1-(5-hydroxy-2-azatricyclo[3.3.1.1^3,7]dec-2-yl)-3-[4-(thiophen-3-yl)-1H-indol-3-yl]butan-1-one], the IC50 lay within 100 to 150 nM. The value for `Cc1cccc2[nH]cc(C(CC(=O)N3C4CC5CC3CC(O)(C5)C4)c3ccc(F)cc3)c12` (stereo not shown) [Compound 93, 3-(4-fluorophenyl)-1-(5-hydroxy-2-azatricyclo[3.3.1.1^3,7]dec-2-yl)-3-(4-methyl-1H-indol-3-yl)propan-1-one] was greater than 250 nM.
